{"source": "patent US7910568B2", "about": "“Derivatives of 4- or 5-aminosalicylic acid” (Antibe Therapeutics Inc., priority 2005, dated 2011)", "key": {"TNBS-induced colitis": {"system": "TNBS-induced colitis", "experiment": "TNBS-induced colitis in mice, disease activity score", "format": "in vivo", "procedure": "(§1) A standard experimental animal model of colitis induced by intracolonic administration of 2,4,6-trinitrobenzene sulfonic acid (TNBS) to mice is used in the following example. A detailed description of this model has been published (Santucci et al. (2003) Gastroenterology 124:1381-94) and is incorporated herein by reference. Briefly, 6-8 week old Balb/c mice were given TNBS intracolonically at a dose of 1.5 mg in 0.1 mL of 30% ethanol. The mice were randomized to the various treatment groups (n=6 per group). Beginning one hour later and continuing every 12 h for 5 days, the mice were treated orally with vehicle (1% carboxymethylcellulose (CMC)), 5-ASA (mesalamine) (25, 50 or 75 mg/kg) or with equimolar doses of 2-hydroxy-5-amino-benzoic acid 4-(thioxo-5H-[1,2]dithiol-3-yl)-phenyl ester hydrochloride (Compound XXXV) (130 mg/kg), or with […] (100 mg/kg), 50% (66 mg/kg) and 25% (33 mg/kg) of that dose. The mice were evaluated (blindly) on the final day of the study for the presence of diarrhea and fecal occult blood, and their body weights were measured. […] After sacrifice, a sample of the colon was excised for measurement of myeloperoxidase (MPO) activity, as a marker of granulocyte infiltration. All results were compared to those obtained with healthy mice as well."}, "[1]": {"system": "visceral pain perception in response to colorectal distension", "experiment": "Rat model of visceral pain perception, colorectal distension, abdominal withdrawal reflex score", "format": "in vivo", "procedure": "A rat model of visceral pain perception, a pre-clinical model of irritable bowel syndrome, was used in the following example. Rats (male, Wistar, 200-250 g, obtained from Charles River, Monza, Italy), were housed in plastic cages and maintained under controlled conditions with 12-hours light/dark cycle with lights on at 7.00 AM. Tap water and standard laboratory chow were freely available. Before experiments, rats were individually trained by spending 2-3 hours per day in a plexiglass cage for 2-3 days. It allowed them to adjust to a movement-restriction environment. Food was withheld for 12 hours before colorectal distension (CRD) recording were performed. Experiments were performed in awake rats and were conducted in a blind manner in that the observer was not aware of the identity of drug administered to each animal.\nIn the testing day, rats were sedated with ether inhalation and a 2 cm long latex balloon was inserted intrarectally 2 cm from the anal verge and fixed at the base of the tail. The balloon was connected via a double-barreled cannula to a pressure transducer to continuously monitoring the rectal pressure by a computer (PowerLab PC, A.D. Instruments, Milford, Mass., USA) and to a syringe for inflation/deflation of the balloon. The rats were then housed in a small cage (20×8×8 cm) on an elevated Plexiglas™ platform and allowed to wake up and adapt for 1 hour. After recovery from sedation, animals underwent the CRD procedure and behavioral responses were tested. The night before the experiments, the balloons were inflated and left overnight so the latex stretched and the balloons became compliant.\nCRD of 20 seconds, performed every 5 minutes, was applied in increment of 0.4 ml starting from 0.4 ml up to 1.6 ml water. To achieve an accurate measurement of the colonic parameters and perception, the distensions were repeated twice for each intensity and data for each animal were averaged for analysis. Each animal underwent a double set of CRD. Twenty minutes after the first sequence of CRD (0.4 mL-1.6 ml water), drugs were administered intraperitoneally (i.p.) and a second set of CRD was performed. Behavioral responses during the first and the second set of CRD were assessed and compared.\nBehavioral response to CRD was assessed by measuring the abdominal withdrawal reflex (AWR) using a semiquantitative score (1).\nThe effects of mesalamine and Compound XXXV on colonic compliance and sensitivity were determined using a total of 8 fasting rats. To investigate whether the administration of mesalamine and Compound XXXV could revert pain induced by CRD, after the first sequence of CRD, […], after which a second set of CRD was repeated.\nAll data are presented as the mean±SEM, with sample sizes of 4 rats/group; statistical comparison of paired data was performed by the Wilcoxon signed rank test. An associated probability (p value) of less that 5% was considered significant."}, "[2]": {"system": "myeloperoxidase (MPO) activity", "experiment": "TNBS-induced colitis in mice, colonic myeloperoxidase (MPO) activity as marker of granulocyte infiltration", "format": "in vivo", "procedure": "as §1"}, "[3]": {"system": "leukocyte adherence to the vascular endothelium", "experiment": "Aspirin-induced leukocyte adherence to the vascular endothelium, intravital microscopy of mesenteric venules", "format": "in vivo, rat", "procedure": "Leukocyte adherence was studied using intravital microscopy, as described in detail previously (Wallace et al., (1993) Am. J. Physiol. 265: 993-998, incorporated hereto by reference). Rats were anesthetized with pentobarbital sodium (60 mg/kg i.p.) and cautery incisions were made along the abdominal region. A tracheotomy was performed to facilitate breathing. The rats were placed in a supine position, and a segment of the mesentery was exteriorized through the abdominal incision. The mesentery was carefully placed over an optically clear viewing pedestal that allowed for trans-illumination of a 2-cm^2 segment of tissue. All exposed tissue was covered with saline-soaked gauze to minimize dehydration. The temperature of the pedestal was kept at 37° C. and the mesentery was superfused with warmed bicarbonate-buffered saline (pH 7.4). An intravital microscope (Nikon L25/0.35) and a ×10 eyepiece were used to observe the mesenteric microcirculation. Post-capillary venules with diameters ranging from 20 to 40 μm were selected for the study. A video camera mounted on the microscope (Panasonic™ digital 5000) projected the image onto a monitor, and the images were recorded for playback analysis using a videocassette recorder. Images of the mesenteric microcirculation were recorded 5 minutes prior to aspirin administration (baseline), at the time of aspirin administration (time 0-5) and every 15 minutes for 60 minutes. Leukocyte adherence was blindly quantified from videotaped images of the vessels made over 5-min periods as the number of leukocytes that remained stationary along the vessel wall for 30 s or more (expressed per 100 μm venule length). Groups of rats (at least 5 in each) were pretreated with Compound XXXV (130 mg/kg), Compound XXVII (100 mg/kg), mesalamine (50 mg/kg), or vehicle 60 min prior to aspirin (or vehicle) administration. These drugs were given intragastrically. In some experiments, rats were treated with glibenclamide (10 mg/kg i.p.) or vehicle 30 min prior to administration of these compounds."}, "[4]": {"experiment": "H2S generation in buffer, liver homogenate and liver homogenate with PAG, sulfide sensitive electrode", "format": "in vitro ADME, rat", "conditions": "1 mM compound, FIG. 21"}}, "data": [{"smiles": "Nc1ccc(O)c(C(=O)Oc2ccc(-c3cc(=S)ss3)cc2)c1", "note": "[Compound XXXV, 5-Amino-2-hydroxy-benzoic acid 4-(5-thioxo-5H-[1,2]dithiol-3-yl)-phenyl ester]", "values": [{"measurement": "Disease Activity Index", "setting": "TNBS-induced colitis; Compound XXXV 130 mg/kg vs mesalamine 50 mg/kg, ADT-OH 80 mg/kg and their mixture, FIG. 3", "value": "almost twice as effective as either mesalamine alone, ADT-OH alone or a mixture of mesalamine and ADT-OH"}, {"measurement": "Every endpoint of FIGS. 7-14 (MPO activity, disease activity score, colonic mRNA expression)", "setting": "TNBS-induced colitis; dose equimolar to 50 mg/kg mesalamine", "value": "superior to mesalamine in every endpoint"}, {"measurement": "Disease activity score", "setting": "TNBS-induced colitis; dose-ranging, oral every 12 h for 5 days, equimolar doses of 50 mg/kg and 75 mg/kg mesalamine, FIG. 1", "value": "superior to mesalamine in reducing the activity score"}, {"measurement": "Perception score (visceral pain in response to colorectal distension)", "setting": "[1]; 100 mg/kg i.p., second set of CRD 0.4-1.6 ml, FIG. 15", "value": "more effective than mesalamine (and vehicle) in reducing visceral pain"}, {"measurement": "Pain perception score after glibenclamide pretreatment", "setting": "[1]; 0.8 mL colorectal distention, 100 mg/kg, glibenclamide 10 mg/kg i.p. 30 min before, FIG. 17", "value": "reversed by pretreatment with glibenclamide"}, {"measurement": "Pain perception score", "setting": "[1]; 0.8 mL colorectal distention, 100 mg/kg, FIG. 17", "value": "significantly reduced the pain perception"}, {"measurement": "Pain perception score", "setting": "[1]; equimolar doses: mesalamine 50 mg/kg, Compound XXXV 130 mg/kg, ADT-OH 80 mg/kg, Compound XXVII 100 mg/kg, 4-HTB 50 mg/kg, vs vehicle", "value": "significantly reduced pain perception"}, {"measurement": "MPO activity (granulocyte infiltration)", "setting": "[2]; Compound XXXV 130 mg/kg, FIG. 4", "value": "significantly reduced inflammation"}, {"measurement": "MPO activity", "setting": "[2]; dose-ranging, oral every 12 h for 5 days, highest doses tested, FIG. 2", "value": "significantly reduced (almost in half)"}, {"measurement": "Aspirin-induced leukocyte adherence after glibenclamide pretreatment", "setting": "[3]; glibenclamide 10 mg/kg i.p. 30 min prior to the compound, FIG. 19", "value": "reversed the inhibitory effect"}, {"measurement": "Aspirin-induced leukocyte adherence", "setting": "[3]; intragastric pretreatment 60 min prior to aspirin (XXXV 130 mg/kg, mesalamine 50 mg/kg), glibenclamide 10 mg/kg i.p., FIG. 19", "value": "prevented the aspirin-induced increase in leukocyte adherence"}, {"measurement": "Aspirin-induced leukocyte adherence, final time period", "setting": "[3]; minutes 60-65, XXXV 130 mg/kg, XXVII 100 mg/kg intragastric, FIG. 20", "value": "suppress aspirin-induced leukocyte adherence"}, {"measurement": "Aspirin-induced leukocyte adherence, final time period, after glibenclamide pretreatment", "setting": "[3]; minutes 60-65, glibenclamide 10 mg/kg i.p., FIG. 20", "value": "reverse this inhibitor effect"}, {"measurement": "Effect of PAG (DL-propargylglycine) on H2S generation in liver homogenate", "setting": "[4]; PAG 2 mM, inhibitor of cystathionine γ-lyase", "value": "lack of effect"}, {"measurement": "H2S release in buffer", "setting": "[4]; potassium phosphate buffer pH 7.4, 37° C.", "value": "release H2S spontaneously (in buffer)"}, {"measurement": "H2S release in liver homogenate compared with buffer", "setting": "[4]; rat liver homogenate 10% (wt/vol)", "value": "greater when in the presence of tissue"}]}]}
